From EP0237348A1, “Cell protection” (THE WELLCOME FOUNDATION LIMITED, priority 1986, dated 1987)

System: Myocaridal infarct size
Test: Myocardial infarct size after 90 minute LAD occlusion and reperfusion in anaesthetized dogs (ex vivo TTC / Evans blue dual perfusion)
Set-up: species or system Male beagle dogs
Settings: for % Area at Risk * Infarcted: 10 mg/kg intravenously over five minutes beginning fifteen minutes prior to reperfusion, 90 minute LAD occlusion, infarct quantified 24 hours after occlusion, means ± standard error
Procedure: Male beagle dogs (10-12 kg) were anaesthetized with pentobarbital sodium, intubated, and ventilated with room air via a Harvard respirator. Catheters for infusion and arterial blood pressure measurements were implanted in the left jugular vein and left carotial artery. A thoracotomy was performed at the fourth intercostal space, the heart suspended in a percardial cradle and the left anterior descending artery (LAD) isolated just below the first major diagonal branch. An electromagnetic flow probe was placed on LAD. A 90 minute occlusion of the LAD was produced by placing a snare of 1/0 silk sutre distel to the flow probe. Treatment was initiated intravenously fifteen minutes prior to release of this snare occlusion and continued for 45 minutes after release. The thoracotomy was closed, and the animals were allowed to recover from the surgical procedures. The animals were reanaesthetized 24 hours after the occlusion, and the flow in the LAD reassessed. Then the heart was removed for post mortem quantification of infarct size.
Three groups of dogs were evaluated. Group 1 consisted of saline controls. Group 2 were administered allopurinol and group 3 were administered oxypurinol. Allopurinol and oxypurinol were dissolved, separately, in O.I.N. sodium hydroxide and back-titrated to pH 9.3. The formulations were adminstered intravenously over five minutes beginning fifteen minutes prior to reperfusion.
Myocaridal infarct size was quantified by an ex vivo dual reperfusion technique. Cannulas were inserted into the LAD immediately distel to the site of occlusion and into the aorta above the coronary ostia. The LAD coronary bed that was perfused with 1.5% triphenyl tetrazolium hydrochloride (TTC) in 0.02 M potassium phosphate buffer, pH 7.4. The aorta was perfused in a retrograde manner with 0.5% Evans blue dye. Both regions ere perfused with their respective stains at a constant pressure of 100 mm mercury for five minutes. The heart was cut into 8 mm slices perpendicular to the apex-base axis. The area of the left ventrical at risk of infarction due to aatomical dependence on the LAD for blood flow is identified by the lack of Evans blue in this region. The region of infarcted myocardium within the area was demarcated by the lack of staining of the tissue when perfused with TTC due to a loss of dehydrogenase enzymes.
The transverse ventricular sections were traced carefully on to clear acrylic overlays to provide a permanent record of infarcted methology and to allow planimetric confirmation of infarct size. Ventricular sections then were trimmed of right ventricular muscle, valvular, and fatty tissue. Total left ventricular, area at risk, and infarct was separated by careful dissection and weighted. Infarct size was expressed as a percentage of the anatomic area at risk. […]

## O=c1[nH]c(=O)c2c[nH]nc2[nH]1 [Oxypurinol, 4,6-dihydroxypyrazola(3,4-d)pyrimidine]
10 mg/kg i.v. fifteen minutes prior to reperfusion, significance criterion p less than 0.05 (ANOVA, Bonferroni)
  Reduction of area at risk (infarcted) compared with saline and allopurinol: significantly reduced
  % Area at Risk * Infarcted: 19.0 ± 1.7%
Administered after ischemia and before reperfusion, summary statement
  Reducing cellular injury when administered after ischemia (and before reperfusion): effective

## Oc1ncnc2[nH]ncc12 [Allopurinol]
  % Area at Risk * Infarcted: 43.1 ± 6.1%
